Laboratory results published in article PMC10584170, “Machine learning-based phenotypic imaging to characterise the targetable biology of Plasmodium falciparum male gametocytes for the development of transmission-blocking antimalarials” (PLOS Pathogens, 2023).
Like-named read-outs stand apart in the source and are kept apart here. Each block holds one compound with its values, some of them ahead of it.

Columns and labels:
[1] = system: P. falciparum male gametocytes; experiment: P. falciparum Dual Gamete Formation Assay (PfDGFA), male readout (exflagellation); assay type: cell-based, Plasmodium falciparum NF54; conditions: for inhibition at 2 µM: 24h preincubation with gametocytes
How it was run: (§1)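 Read-outs are automated image counts of exflagellation centres (brightfield, 10 frames over 1 s) and Pfs25-positive female gametes (Cy3 fluorescence).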

[2] = system: P. falciparum female gametocytes; experiment: P. falciparum Dual Gamete Formation Assay (PfDGFA), female readout (Pfs25-positive female gametes); assay type: cell-based, Plasmodium falciparum NF54; conditions: for inhibition at 2 µM: 24h preincubation with gametocytes
How it was run: as §1

[3] = system: P. falciparum male gametocytes; experiment: PhIDDLI timecourse assay, compound added at timepoints after triggering male gametogenesis; assay type: cell-based, Plasmodium falciparum NF54
[4] = system: calcium-dependent protein kinase 1 (PfCDPK1); conditions: cited from earlier work
[5] = system: cyclin-dependent protein kinase 6 (PfPK6); design: method as in PMID 26934697; conditions: cited from earlier work
HepG2 cells = experiment: HepG2 cytotoxicity counter-screen
[6] = system: P. falciparum protein kinase G (PfPKG); conditions: cited from earlier work

- IC50 ([1]; this study, read-out: Pf DGFA IC50 MALE): 0.25 µM
SMILES: CNC(=O)c1ccccc1Nc1nc(Nc2ccc(N3CCN(C)CC3)nc2)ncc1C.Cl [TC11]
- Cytotox ratio Pf Male [1]: 13.8
- Cytotox ratio Pf Female [2]: 0.344
- cells showing apparent DNA replication ([3]; compound added concurrent with induction, fixed 20 min post-induction, DMSO control 61.4%): 18.6%
- effect on exflagellation ([3]; compound added concurrent with triggering male gametogenesis or 2 min later): substantially reduced
- amounts of cells showing evidence of DNA replication ([3]; compound added during the first 2 min of male gametogenesis): markedly reduced
- effect on exflagellation ([3]; compound added later than 2 min post-induction (up to 10 min)): inhibited exflagellation
- activity against recombinant PfCDPK1 ([4]; enzymatic assay): active
- activity against recombinant PfPK6 [5]: active
- Mean TOX (HepG2 cells; mean of the HepG2 TOX50 values): 3.44 µM

- IC50 ([1]; Plasmodium falciparum, PfDGFA, 24 h incubation with gametocytes before induction, exflagellation readout, read-out: Male IC50): 0.91 µM
- IC50 ([2]; Plasmodium falciparum, PfDGFA, 24 h incubation with gametocytes before induction, female gamete readout, read-out: Female IC50): 0.27 µM
SMILES: CC(C)(CN)c1nc(-c2ccc(Cl)c(O)c2)c(-c2ccncc2)[nH]1.Cl [TCMDC-140369]
- inhibition at 2 µM ([1]; Plasmodium falciparum, average of replicates, read-out: Average inhibition male (%)): 95%
- inhibition at 2 µM ([1]; Plasmodium falciparum, replicate R1, read-out: % inhibition male (individual replicates) R1): 96%
- inhibition at 2 µM ([1]; Plasmodium falciparum, replicate R2, read-out: % inhibition male (individual replicates) R2): 97.9%
- inhibition at 2 µM ([1]; Plasmodium falciparum, replicate R3, read-out: % inhibition male (individual replicates) R3): 95.1%
- inhibition at 2 µM ([1]; Plasmodium falciparum, replicate R4, read-out: % inhibition male (individual replicates) R4): 90.9%
- inhibition at 2 µM ([2]; Plasmodium falciparum, average of replicates, read-out: Average inhibition female (%)): 51.4%
- inhibition at 2 µM ([2]; Plasmodium falciparum, replicate R1, read-out: % inhibition female (individual replicates) R1): 22.1%
- inhibition at 2 µM ([2]; Plasmodium falciparum, replicate R2, read-out: % inhibition female (individual replicates) R2): 80%
- inhibition at 2 µM ([2]; Plasmodium falciparum, replicate R3, read-out: % inhibition female (individual replicates) R3): 27.7%
- inhibition at 2 µM ([2]; Plasmodium falciparum, replicate R4, read-out: % inhibition female (individual replicates) R4): 75.6%
- activity against PfCDPK1 [4]: additional activity
- PfPKG inhibition [6]: PfPKG inhibitor
- Tox50 (HepG2 cells; cytotoxic activity against HepG2 cells): 17.63 µM
